Experimental data from PMC5498548.
In brackets after ≈: the same amount, converted by molar mass. Several values for one entry are separate records, joined by “and”; a condition that tells them apart may be missing. Equal entries are not always repeated. Entries after “also recorded” stand apart in the source; their conditions may differ. Structures can show the parent of a compound that is named as a salt. Where two headings read alike, the source gives them in different places.

T1: IdeR (Mycobacterium tuberculosis, UniProt P9WMH1 1-230)
T1 sequence: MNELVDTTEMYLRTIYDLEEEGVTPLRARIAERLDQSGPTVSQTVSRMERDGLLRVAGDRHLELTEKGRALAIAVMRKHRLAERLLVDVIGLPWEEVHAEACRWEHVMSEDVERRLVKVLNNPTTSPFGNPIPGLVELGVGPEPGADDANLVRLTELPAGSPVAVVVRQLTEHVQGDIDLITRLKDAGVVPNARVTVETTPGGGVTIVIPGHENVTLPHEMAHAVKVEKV

B1: mbtA-mbtB intergenic IdeR binding region oligo (dsDNA)
DNA 1: CCCTGTTAGCACAGGCTGCCCTAATTTTAGTG
DNA 2: CACTAAAATTAGGGCAGCCTGTGCTAACAGGG

Key:
IdeR [1] = target: T2, IdeR (Mycobacterium tuberculosis, UniProt P9WMH1); experiment: EMSA with Fe2+ instead of Ni2+: effect of iron on inhibition; assay type: biochemical; conditions: 100 µM Fe2+, 100 µg/ml compound
IdeR [2] = target: T2, IdeR; experiment: EMSA competition experiments with increasing labeled DNA; assay type: biochemical; conditions: DNA 0.8 pmoles to 12.8 pmoles
IdeR [3] = target: T2, IdeR; experiment: biochemical; conditions: EMSA
[4] = tested on: HEK (Human Embryonic Kidney cell line); experiment: Cytotoxicity by REMA in HEK; assay type: cell-based; conditions: Homo sapiens, 1-200 µg/ml, read-out: Inhibition in HEK (IC50 in µg/ml)
Method: (§1) The cytotoxicity of the compounds was determined by employing REMA using various mammalian cell lines such as THP-1 (human monocytic macrophage cell line), HEK (Human Embryonic Kidney cell line), MDCK (Madine darby canine kidney cell line) and HepG2 (Human hepatocellular carcinoma cell line). 1 × 10^4 cells/well were employed in a sterilized 96-well plate containing serial dilutions of compounds ranging from 1 µg/ml to 200 µg/ml concentration, in their respective media (RPMI for THP-1, DMEM for HEK and HepG2 and MEM for MDCK) with 10% fetal bovine serum and Antibiotic-Antimycotic mix (Invitrogen Corporation, Carlsbad, California, USA). IC50 is defined as the concentration of the compound that causes 50% reduction in the fluorescence intensity indicating 50% viable cells. IC50 values were determined from the results of at least two independent tests and Mean ± S.E.M was calculated from the inhibition curve using GraphPad Prism 5.

M. tuberculosis = experiment: Resazurin microtiter assay (REMA) whole cell MIC90 in broth culture; assay type: cell-based, Mycobacterium tuberculosis; conditions: MB7H9 medium, Mean ± S.E., three experiments; for MIC90: Mycobacterium tuberculosis, read-out: MIC90 of compounds against M. tuberculosis
[5] = tested on: THP-1 (human monocytic macrophage cell line); experiment: Cytotoxicity by REMA in THP-1; assay type: cell-based; conditions: for IC50: Homo sapiens, THP-1, 1-200 µg/ml, read-out: Inhibition in THP1 (IC50 in µg/ml)
Method: as §1

[6] = tested on: MDCK (Madine darby canine kidney cell line); experiment: Cytotoxicity by REMA in MDCK; assay type: cell-based; conditions: Canis lupus familiaris, MDCK, 1-200 µg/ml, read-out: Inhibition in MDCK (IC50 in µg/ml)
Method: as §1

[7] = tested on: intracellular M. tuberculosis H37Rv; experiment: Inhibition of intracellular M. tuberculosis in PMA activated THP-1 cells, spotting on agar plates; assay type: cell-based, Mycobacterium tuberculosis
[8] = tested on: HepG2 (Human hepatocellular carcinoma cell line); experiment: Cytotoxicity by REMA in HepG2; assay type: cell-based; conditions: Homo sapiens, HepG2, 1-200 µg/ml, read-out: Inhibition in HepG2 (IC50 in µg/ml)
Method: as §1

IdeR [9] = target: T1, IdeR; experiment: EMSA; conditions: protein: recombinant; tags: vector pET28c NdeI/HindIII (His-tag, Ni-NTA purified); C-terminal streptactin tag from reverse primer; chain copies: 4; label: Cy5 at 5' end of both strands; blunt (only sense strand printed)
[10] = 0.35 µg IdeR, 0.8 picomoles labeled DNA, 200 µM NiSO4, inhibitor 0.4-100 µg/ml, read-out: IC50 (µg/ml) (converted)
[11] = same values given in µM, read-out: IC50
[12] = at 500 μg/ml (highest concentration tested), infected THP-1, 5 days
[13] = at concentrations lower than 500 μg/ml (100 to 400 μg/ml), infected THP-1

| Molecule | effect of iron on the inhibitory potential (IdeR [1]) | mode of inhibition in competition with DNA (IdeR [2]) | IC50 (IdeR [3]; [10]) | IC50 (IdeR [3]; [11]) [µM] | IC50 [4] [µg/mL] | MIC90 of compounds against M. tuberculosis (M. tuberculosis) | MIC90 (M. tuberculosis) [µg/mL] | Inhibition in THP1 (IC50 in µg/ml) ([5]; 1-200 µg/ml) | IC50 [5] [µg/mL] | IC50 [6] [µg/mL] | growth of intracellular M. tuberculosis on agar plates ([7]; at 150 μg/ml and 125 μg/ml, infected THP-1, 5 days) | growth of intracellular M. tuberculosis on agar plates ([7]; at lower concentrations (100 to 25 μg/ml), infected THP-1, 5 days) | IC50 [8] [µg/mL] | growth of intracellular M. tuberculosis on agar plates [7, 12] | growth of intracellular M. tuberculosis on agar plates [7, 13] | binding result (IdeR [9]) |
| --- | --- | --- | --- | --- | --- | --- | --- | --- | --- | --- | --- | --- | --- | --- | --- | --- |
| O=S(=O)(O)c1ccc(O)c(N=Nc2c(O)ccc3ccccc23)c1 [Compound I-42, Benzene sulfonic acid,4-hydroxy-3-[(2-hydroxy-1-naphthalenyl)azo]-monosodium salt] | no effect | competing with DNA | ≤ 72.6 µM and 2.9 µM | 2.72 |  |  |  |  |  |  |  |  |  |  |  |  |
| Cc1ccc(S(=O)(=O)C2CC(=O)N(c3ccc(F)c(Cl)c3)C2=O)cc1 (stereo not drawn) [Compound I-108, 1-(3-chloro-4-fluorophenyl)-3-[(4-methylphenyl)sulfonyl]pyrrolidine-2,5-dione] |  |  | 62.9 µM and 63.6 µM | 63.6 | > 200 | 17.5 ± 3.06 µg/mL | 17.5 (≈ 45.8 µM) | slight toxicity | 168 ± 5.6 (≈ 439 µM) | > 200 | only a few pin pointed colonies; also recorded: pin point colonies; also recorded: able to limit the growth of intracellular bacteria | prominent growth of bacilli | > 200 |  |  |  |
| Cc1ccc(C2=Nc3c(c(C)nn3-c3ccccc3)N=C(C(=O)O)C2)cc1 [Compound I-34, 3-methyl-7-(4-methylphenyl)-1-phenyl-1,6-dihydropyrazolo[3,4-b][1,4]diazepine-5-carboxylic acid] | no effect | competing with DNA | ≤ 69.8 µM and 17 µM and 16.7 µM | 17 | > 200 | 86 µg/mL and 86.6 ± 7.8 µg/mL | 86.6 (≈ 242 µM) |  | > 200 | > 200 |  |  | > 200 | negligible inhibition; also recorded: unable to limit the growth of intracellular bacteria | unaffected |  |
| Cc1nn(-c2ccccc2)c2c1N=C(C(=O)O)CC(c1ccccc1)=N2 [Compound I-33, 3-methyl-1,7-diphenyl-1,6-dihydropyrazolo[3,4-b][1,4]diazepine-5-carboxylic acid] |  |  | 63 µM and 63.1 µM | 63 | > 200 | 93 µg/mL and 93.3 ± 8.16 µg/mL | 93.3 (≈ 271 µM) |  | > 200 | > 200 |  |  | > 200 | negligible inhibition | unaffected |  |
| O=C(O)C1(Cc2ccc(O)c(O)c2)NCCS1 (stereo not drawn) [Compound I-20, 2-(3,4-dihydroxybenzyl)-1,3-thiazolidine-2-carboxylic acid] | no effect | competing with DNA | 9.56 µM | 9.56 |  |  |  |  |  |  |  |  |  |  |  |  |
| B1 |  |  |  |  |  |  |  |  |  |  |  |  |  |  |  | binds |
